This note sets out measurements from PubChem BioAssay (NCI).

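Five compound concentrations were applied to cells in 96-well plates for 48 hours; endpoints were derived by simple linear interpolation of the resulting dose-response curve. The concentration for 50% growth inhibition is given as GI50. TGI: concentration producing complete growth inhibition.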

Common to all, as to test: NCI-60 cell line screen, 48 h
Assay [1] concerns CAKI-1 renal.
Assay [2] relates to COLO 205 colon.
Assay [3] concerns LOX IMVI melanoma.
Assay [4] has as its system NCI-H23 lung.
Assay [5] relates to NCI-H522 lung.
Assay [6] relates to OVCAR-8 ovarian.
Assay [7] concerns UO-31 renal.
Assay [8] has as its system EKVX NSCLC.

With `CSc1n[n+]2c(s1)SCCC2`, the TGI in assay [1] was greater than 100 µM; in assay [2], 48.3 µM; in assay [3] it was greater than 100 µM; in assay [4], greater than 100 µM; in assay [5], greater than 100 µM; in assay [6], greater than 100 µM. Further, in assay [7], the TGI is greater than 100 µM.

`FC(F)(F)C1(Br)C(c2ccccc2)=C1c1ccccc1`: the TGI in assay [1] was 54.7 µM; in assay [2], 34.9 µM; in assay [8], greater than 100 µM; in assay [3], 28 µM; in assay [4], 32.7 µM; in assay [6], 30.5 µM. Besides, in assay [7], the TGI is 33.9 µM.

In the case of `CCOC(=N)/C(=C1\OC(N)=C(c2ccc(Cl)cc2)C1=O)c1ccc(Cl)cc1`, the TGI in assay [1] was 62.8 µM; in assay [2], 30.2 µM; in assay [8], 32.7 µM; in assay [3], 28.1 µM; in assay [4] it was 28.6 µM; in assay [5], 29.4 µM. In addition, the values for the TGI in assay [6] and in assay [7] were 28.7 µM and 31.3 µM, respectively.

As for `COC1=CC(=O)C2C(C1=O)C(c1ccccc1)[C@H]2C` (some centres not stated), the TGI in assay [2], in assay [8], in assay [3], in assay [4], in assay [6] and in assay [7] was greater than 100 µM throughout.

Take `C[N+](C)(C)CC(=O)N/N=C(\C(=O)NC1=C(Cl)C(=O)c2ccccc2C1=O)C(C#N)c1csc(-c2ccc([N+](=O)[O-])cc2)n1` (configuration not stated): the TGI in assay [1], in assay [2], in assay [8], in assay [3], in assay [4] and in assay [5] was greater than 100 µM each time. Besides, the TGI in assay [6] and in assay [7] was greater than 100 µM each time.

`CCOc1cccc2ccc[n+](CC)c12`: the TGI in assay [2], in assay [8], in assay [3], in assay [4], in assay [5] and in assay [6] was greater than 100 µM throughout. For the same compound, the TGI in assay [7] is greater than 100 µM.

Take `COC(=O)C1[C@H](c2cc(OC)c(OC)c(OC)c2)OC(=O)C1(C(=O)OC)C(=O)c1ccc2c(c1)OCO2` (some centres not stated): the TGI in assay [1], in assay [2], in assay [8], in assay [3], in assay [4] and in assay [5] was greater than 100 µM throughout. The TGI in assay [6] and in assay [7] was greater than 100 µM throughout.

On to `N#C/C(=C1\SC(N=Nc2ccccc2)C(=O)N1c1ccccc1)c1nc2ccccc2[nH]1` (configuration not stated), for which the TGI in assay [1], in assay [2], in assay [8], in assay [3], in assay [4] and in assay [5] was greater than 100 µM throughout. Also, the TGI in assay [6] and in assay [7] was greater than 100 µM throughout.

For `CC(C)(C)C(=O)OCC1CCC(n2cnc3c(=O)[nH]c(N)nc32)O1` (configuration not stated), the TGI in assay [1], in assay [2], in assay [8], in assay [3], in assay [4] and in assay [6] was greater than 100 µM each time. In addition, in assay [7], the TGI was greater than 100 µM.

As for `CCc1cccc(CC)c1NC(=O)C1=C(C)NC(C)=C(C(=O)Nc2c(CC)cccc2CC)C1c1ccc([N+](=O)[O-])cc1`, the TGI in assay [1] is greater than 100 µM; in assay [2] it was 54.5 µM; in assay [8], 78.3 µM; in assay [3] it was greater than 100 µM; in assay [4] it was greater than 100 µM; in assay [5], 40.2 µM. In addition, the TGI in assay [6] was 64.3 µM; in assay [7], greater than 100 µM.

On to `O=C(Nc1cccc(O)c1)C(=O)C(C(=O)c1ccc(Cl)c(Cl)c1)C1OC(=O)c2ccccc21` (configuration not stated), for which the TGI was determined as 75 µM in assay [1]; 30.7 µM in assay [2]; 46.6 µM in assay [8]; 33.8 µM in assay [3]; 32.6 µM in assay [4]; 21.8 µM in assay [5]. Moreover, the TGI in assay [6] is 37.8 µM; in assay [7], 27.1 µM.

With `CCc1cc(CCC(=O)Nc2c(C)cccc2C)[nH]n1`, the TGI in assay [1], in assay [2], in assay [8], in assay [4], in assay [5] and in assay [6] was greater than 100 µM throughout. The compound further showed a TGI in assay [7] greater than 100 µM.

For the compound `CN(C)c1nc(=Nc2cccc(Cl)c2)ss1`, the TGI is 33.4 µM in assay [1]; 56.5 µM in assay [8]; 27.8 µM in assay [3]; greater than 100 µM in assay [4]; 15 µM in assay [5]; 25.6 µM in assay [6]. The compound also registered a TGI in assay [7] of 69.8 µM.

As for `COC(=O)C(Cc1nc2ccccc2[nH]c1=O)C(=O)C(=O)Nc1ccc([N+](=O)[O-])cc1[N+](=O)[O-]` (configuration not stated), the TGI in assay [1] is greater than 100 µM; in assay [2] it was 35.2 µM; in assay [8] it was 51.2 µM; in assay [3] it was 44.4 µM; in assay [4], 35.9 µM; in assay [5], 20.8 µM. The values for the TGI in assay [6] and in assay [7] were 52.6 µM and 43.6 µM, respectively.

`CC(=O)OC1CC2C(C)(C)C(=O)C=C[C@]2(C)C2CCC3(C)C(=CC(=O)C3c3ccoc3)[C@]12C` (some centres not stated): the TGI in assay [1] was greater than 100 µM; in assay [2] it was 34.6 µM; in assay [8], 37.7 µM; in assay [3] it was 31.4 µM; in assay [4], 29.5 µM; in assay [6] it was 41 µM. In assay [7], the TGI was 33 µM.

As for `CN(C)C=C1C(Cl)=C(C=O)CC(C=O)=C1Cl`, the TGI in assay [1] came to 31.2 µM; in assay [2], 30.6 µM; in assay [8] it was 54.3 µM; in assay [3], 6.07 µM; in assay [4] it was 37.1 µM; in assay [5] it was 4.14 µM. For the same compound, the results for the TGI in assay [6] and in assay [7] were 12.6 µM and 35.1 µM, respectively.

On to `CC1=NN(C(=O)c2ccc([N+](=O)[O-])cc2)C(=O)C1N=Nc1ccccc1C(=O)O` (configuration not stated), for which the TGI in assay [1], in assay [2], in assay [8], in assay [4], in assay [5] and in assay [6] was greater than 100 µM in each case. The compound further displayed a TGI in assay [7] greater than 100 µM.

Take `CC(=O)[CH-]C(=O)c1ccccc1.CC(=O)[CH-]C(=O)c1ccccc1.CCOCC[O-].CCOCC[O-].[Ti+4]`: the GI50 in assay [1] is 19.2 µM; in assay [8] it was 38.4 µM; in assay [3], 37.8 µM; in assay [5] it was 17 µM; in assay [6], 19.6 µM; in assay [7], 17.6 µM. Besides, the TGI in assay [1] is 57.8 µM; in assay [8], 96.4 µM; in assay [3] it was greater than 100 µM; in assay [5], 36.5 µM; in assay [6], 41.7 µM; in assay [7], 49.5 µM.

As to `O=c1c2cccc3cccc(c4n1CCN=4)c32`, the TGI in assay [1] was greater than 100 µM; in assay [2] it was greater than 100 µM; in assay [8], greater than 100 µM; in assay [3], 80.5 µM; in assay [4], greater than 100 µM; in assay [5], greater than 100 µM. Besides, the TGI in assay [6] and in assay [7] was greater than 100 µM in each case.

As to `CN1C(=O)C(=O)c2cc3c(c4c2c1cc1ccccc14)OCO3`, the TGI in assay [1] was greater than 100 µM; in assay [2], 89.7 µM; in assay [8] it was greater than 100 µM; in assay [3], 97.2 µM; in assay [4], greater than 100 µM; in assay [5], greater than 100 µM. Further, the TGI in assay [6] and in assay [7] was greater than 100 µM each time.

Turning to `O=[N+]([O-])C1Cc2ccccc2OC1c1ccccc1` (configuration not stated), the TGI in assay [1] is 99 µM; in assay [2], greater than 100 µM; in assay [8], greater than 100 µM; in assay [3], 31.9 µM; in assay [4] it was greater than 100 µM; in assay [5], greater than 100 µM. Further, the TGI in assay [6] and in assay [7] was greater than 100 µM throughout.

Consider `CC(C)(C)C1CCC2c3c([nH]c4ccccc34)C3C(=O)N(c4ccccc4)C(=O)C3C2C1` (configuration not stated), for which the TGI came to 17.8 µM in assay [2]; 55.3 µM in assay [8]; 15.3 µM in assay [3]; 40.1 µM in assay [4]; 17.8 µM in assay [6]; 8.48 µM in assay [7].

For `CC/C(CC(=O)CCC(=O)Nc1ccccc1[N+](=O)[O-])=N/NC(=O)C[n+]1ccccc1`, the TGI in assay [1], in assay [2], in assay [8], in assay [3], in assay [4] and in assay [5] was greater than 100 µM in each case. Moreover, the TGI in assay [6] and in assay [7] was greater than 100 µM in each case.

Regarding `C=C[C@@]1(O)CCCC2=C(C(=O)OCC)CC[C@]21C`, the TGI in assay [2], in assay [8], in assay [4], in assay [5], in assay [6] and in assay [7] was greater than 100 µM each time.
